Measured values reported in the kinase profiling compilation of Christmann-Franck et al. (2016).
“And” between values parts separate entries of the source, which are not always exact repeats. Equal entries are not always repeated.

Experiments:
Experiment in all cases: KINOMEscan competition binding
Conditions in all cases: compound 10.0 µM
RPS6KA6 KD1 (human) = RPS6KA6 KD1 (human) (UniProt Q9UK32)
LIMK2 (human) = LIMK2 (human) (UniProt P53671)
EPHA2 (human) = EPHA2 (human) (UniProt P29317)
KIT (human) = KIT (human) (UniProt P10721)
ITK (human) = ITK (human) (UniProt Q08881)
Chain of ITK (human) (Q08881 whole entry, looked up): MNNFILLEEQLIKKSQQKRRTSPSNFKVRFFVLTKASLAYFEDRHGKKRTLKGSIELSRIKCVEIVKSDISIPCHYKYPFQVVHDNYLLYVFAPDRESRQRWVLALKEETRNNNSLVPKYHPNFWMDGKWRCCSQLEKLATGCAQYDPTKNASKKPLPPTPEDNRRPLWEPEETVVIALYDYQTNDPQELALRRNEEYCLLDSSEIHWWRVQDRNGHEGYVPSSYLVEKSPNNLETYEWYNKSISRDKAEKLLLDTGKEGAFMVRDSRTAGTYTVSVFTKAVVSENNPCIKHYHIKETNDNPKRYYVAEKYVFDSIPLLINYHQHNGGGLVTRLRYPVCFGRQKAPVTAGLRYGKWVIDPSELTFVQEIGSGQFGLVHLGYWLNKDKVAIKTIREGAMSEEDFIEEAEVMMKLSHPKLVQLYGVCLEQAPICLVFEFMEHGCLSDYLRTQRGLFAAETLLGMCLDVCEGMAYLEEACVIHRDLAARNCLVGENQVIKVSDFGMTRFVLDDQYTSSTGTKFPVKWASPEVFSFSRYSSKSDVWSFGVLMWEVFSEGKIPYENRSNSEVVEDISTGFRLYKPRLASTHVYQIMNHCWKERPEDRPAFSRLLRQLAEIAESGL

CAMKK1 (human) = CAMKK1 (human) (UniProt Q8N5S9)
Chain of CAMKK1 (human) (Q8N5S9 whole entry, looked up): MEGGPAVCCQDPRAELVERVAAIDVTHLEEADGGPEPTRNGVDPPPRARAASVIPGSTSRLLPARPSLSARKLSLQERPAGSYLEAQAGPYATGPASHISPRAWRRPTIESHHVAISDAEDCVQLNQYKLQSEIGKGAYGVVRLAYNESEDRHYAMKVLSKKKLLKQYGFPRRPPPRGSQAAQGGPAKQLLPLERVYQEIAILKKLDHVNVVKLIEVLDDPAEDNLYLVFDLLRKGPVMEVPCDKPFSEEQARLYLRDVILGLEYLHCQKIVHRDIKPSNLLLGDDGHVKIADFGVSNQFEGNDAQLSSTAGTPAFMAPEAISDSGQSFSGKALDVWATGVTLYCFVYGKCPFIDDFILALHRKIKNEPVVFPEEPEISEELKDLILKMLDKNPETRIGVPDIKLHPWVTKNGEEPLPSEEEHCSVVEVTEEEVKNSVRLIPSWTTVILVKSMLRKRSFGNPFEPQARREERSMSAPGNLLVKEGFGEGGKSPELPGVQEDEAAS

NUAK2 (human) = NUAK2 (human) (UniProt Q9H093)
PDGFRB (human) = PDGFRB (human) (UniProt P09619)
CDKL1 (human) = CDKL1 (human) (UniProt Q00532)
PTK2 (human) = PTK2 (human) (UniProt Q05397)
Chain of PTK2 (human) (Q05397 whole entry, looked up): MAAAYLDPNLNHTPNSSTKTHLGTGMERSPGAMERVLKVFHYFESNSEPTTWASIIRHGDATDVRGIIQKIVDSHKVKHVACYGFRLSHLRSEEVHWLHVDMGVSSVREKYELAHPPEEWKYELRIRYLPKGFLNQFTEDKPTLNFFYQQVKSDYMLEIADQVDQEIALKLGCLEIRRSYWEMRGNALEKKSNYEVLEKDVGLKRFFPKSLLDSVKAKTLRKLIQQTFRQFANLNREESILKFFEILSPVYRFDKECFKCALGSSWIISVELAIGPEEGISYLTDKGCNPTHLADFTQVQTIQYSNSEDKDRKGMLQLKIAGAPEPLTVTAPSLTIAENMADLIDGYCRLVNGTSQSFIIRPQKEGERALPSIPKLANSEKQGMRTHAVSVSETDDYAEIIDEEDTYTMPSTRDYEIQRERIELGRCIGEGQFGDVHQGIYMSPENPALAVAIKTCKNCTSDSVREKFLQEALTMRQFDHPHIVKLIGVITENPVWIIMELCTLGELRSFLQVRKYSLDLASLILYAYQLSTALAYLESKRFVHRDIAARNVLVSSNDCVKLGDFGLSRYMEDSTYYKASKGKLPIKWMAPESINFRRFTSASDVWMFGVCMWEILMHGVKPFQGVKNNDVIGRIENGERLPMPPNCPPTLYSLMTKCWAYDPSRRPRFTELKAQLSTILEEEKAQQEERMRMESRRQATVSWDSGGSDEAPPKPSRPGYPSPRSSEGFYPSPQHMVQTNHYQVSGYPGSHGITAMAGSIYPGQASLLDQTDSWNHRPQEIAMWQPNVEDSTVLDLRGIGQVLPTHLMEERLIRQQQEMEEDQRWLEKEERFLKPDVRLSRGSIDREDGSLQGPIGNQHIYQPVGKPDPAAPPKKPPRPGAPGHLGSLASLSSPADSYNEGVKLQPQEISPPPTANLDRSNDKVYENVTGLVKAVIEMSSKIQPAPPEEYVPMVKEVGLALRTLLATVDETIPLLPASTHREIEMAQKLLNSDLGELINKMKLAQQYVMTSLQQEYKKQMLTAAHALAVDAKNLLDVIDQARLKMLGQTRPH

CAMK4 (human) = CAMK4 (human) (UniProt Q16566)
CDK2 (human) = CDK2 (human) (UniProt P24941)
HIPK4 (human) = HIPK4 (human) (UniProt Q8NE63)
ACVR2B (human) = ACVR2B (human) (UniProt Q13705)
PIM2 (human) = PIM2 (human) (UniProt Q9P1W9)
MAP3K1 (human) = MAP3K1 (human) (UniProt Q13233)
ROCK2 (human) = ROCK2 (human) (UniProt O75116)
Chain of ROCK2 (human) (O75116 whole entry, looked up): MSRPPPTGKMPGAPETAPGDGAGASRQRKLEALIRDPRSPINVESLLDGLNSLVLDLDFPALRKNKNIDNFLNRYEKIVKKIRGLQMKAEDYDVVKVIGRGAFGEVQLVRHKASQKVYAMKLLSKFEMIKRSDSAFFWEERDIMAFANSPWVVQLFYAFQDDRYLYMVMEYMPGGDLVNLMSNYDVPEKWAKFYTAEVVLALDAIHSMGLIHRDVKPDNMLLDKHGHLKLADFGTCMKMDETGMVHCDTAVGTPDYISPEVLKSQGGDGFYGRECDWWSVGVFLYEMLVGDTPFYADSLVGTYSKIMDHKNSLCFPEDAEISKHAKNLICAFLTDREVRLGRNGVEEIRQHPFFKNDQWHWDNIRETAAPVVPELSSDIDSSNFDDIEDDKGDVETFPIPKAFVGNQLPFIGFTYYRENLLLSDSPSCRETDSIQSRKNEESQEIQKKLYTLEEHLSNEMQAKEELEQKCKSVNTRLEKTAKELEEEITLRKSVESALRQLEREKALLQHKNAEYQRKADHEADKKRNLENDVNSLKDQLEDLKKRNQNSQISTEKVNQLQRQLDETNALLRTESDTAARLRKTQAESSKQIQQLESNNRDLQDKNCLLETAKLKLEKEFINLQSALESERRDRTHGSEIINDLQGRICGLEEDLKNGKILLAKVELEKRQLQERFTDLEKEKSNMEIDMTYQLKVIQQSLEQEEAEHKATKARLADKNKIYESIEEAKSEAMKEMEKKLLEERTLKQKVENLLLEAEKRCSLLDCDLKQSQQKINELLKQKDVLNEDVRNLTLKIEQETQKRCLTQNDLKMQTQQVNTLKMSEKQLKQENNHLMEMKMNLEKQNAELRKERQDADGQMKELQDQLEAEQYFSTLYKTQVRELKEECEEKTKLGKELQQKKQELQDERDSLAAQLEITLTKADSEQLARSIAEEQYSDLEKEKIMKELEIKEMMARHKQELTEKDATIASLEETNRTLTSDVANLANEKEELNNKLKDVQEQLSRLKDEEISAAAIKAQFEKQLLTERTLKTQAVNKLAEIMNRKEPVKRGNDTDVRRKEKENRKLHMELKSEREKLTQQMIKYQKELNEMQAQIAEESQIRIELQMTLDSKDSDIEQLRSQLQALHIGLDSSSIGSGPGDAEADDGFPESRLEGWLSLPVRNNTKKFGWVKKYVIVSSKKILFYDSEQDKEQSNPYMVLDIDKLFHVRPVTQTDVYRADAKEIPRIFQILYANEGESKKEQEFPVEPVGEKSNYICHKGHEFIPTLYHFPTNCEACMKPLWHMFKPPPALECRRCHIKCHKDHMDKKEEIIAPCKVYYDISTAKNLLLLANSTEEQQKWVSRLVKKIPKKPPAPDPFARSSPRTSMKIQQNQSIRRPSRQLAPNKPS

PIP5K1C (human) = PIP5K1C (human) (UniProt O60331)
CDKL5 (human) = CDKL5 (human) (UniProt O76039)
GSK3A (human) = GSK3A (human) (UniProt P49840)
NEK6 (human) = NEK6 (human) (UniProt Q9HC98)
MYLK3 (human) = MYLK3 (human) (UniProt Q32MK0)
Chain of MYLK3 (human) (Q32MK0 whole entry, looked up): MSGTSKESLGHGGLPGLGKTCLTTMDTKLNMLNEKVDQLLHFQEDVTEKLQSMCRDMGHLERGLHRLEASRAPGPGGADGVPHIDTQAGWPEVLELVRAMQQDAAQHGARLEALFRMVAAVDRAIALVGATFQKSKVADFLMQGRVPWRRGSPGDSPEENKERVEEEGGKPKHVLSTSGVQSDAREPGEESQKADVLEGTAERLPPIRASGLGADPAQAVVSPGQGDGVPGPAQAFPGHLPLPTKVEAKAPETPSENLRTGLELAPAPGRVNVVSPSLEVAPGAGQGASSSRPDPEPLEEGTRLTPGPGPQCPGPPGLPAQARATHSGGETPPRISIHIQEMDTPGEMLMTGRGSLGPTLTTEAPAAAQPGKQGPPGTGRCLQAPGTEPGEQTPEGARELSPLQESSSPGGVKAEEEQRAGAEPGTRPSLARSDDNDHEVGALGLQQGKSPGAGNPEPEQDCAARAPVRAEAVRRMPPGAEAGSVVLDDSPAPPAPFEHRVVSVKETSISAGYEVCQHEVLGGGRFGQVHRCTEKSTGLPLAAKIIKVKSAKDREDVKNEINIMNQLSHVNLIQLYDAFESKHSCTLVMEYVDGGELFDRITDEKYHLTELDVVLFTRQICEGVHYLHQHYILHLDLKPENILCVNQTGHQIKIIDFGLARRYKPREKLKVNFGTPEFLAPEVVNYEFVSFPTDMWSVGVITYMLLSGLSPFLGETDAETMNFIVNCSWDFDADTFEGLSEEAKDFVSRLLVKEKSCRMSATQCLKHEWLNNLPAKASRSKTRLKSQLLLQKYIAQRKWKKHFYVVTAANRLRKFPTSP

RPS6KA4 KD2 (human) = RPS6KA4 KD2 (human) (UniProt O75676)
PRKCH (human) = PRKCH (human) (UniProt P24723)
MAP4K1 (human) = MAP4K1 (human) (UniProt Q92918)
FGR (human) = FGR (human) (UniProt P09769)
CSNK1A1L (human) = CSNK1A1L (human) (UniProt Q8N752)
MAPKAPK2 (human) = MAPKAPK2 (human) (UniProt P49137)
MAP2K4 (human) = MAP2K4 (human) (UniProt P45985)
PKN1 (human) = PKN1 (human) (UniProt Q16512)
PRKCD (human) = PRKCD (human) (UniProt Q05655)
MYLK2 (human) = MYLK2 (human) (UniProt Q9H1R3)
Chain of MYLK2 (human) (Q9H1R3 whole entry, looked up): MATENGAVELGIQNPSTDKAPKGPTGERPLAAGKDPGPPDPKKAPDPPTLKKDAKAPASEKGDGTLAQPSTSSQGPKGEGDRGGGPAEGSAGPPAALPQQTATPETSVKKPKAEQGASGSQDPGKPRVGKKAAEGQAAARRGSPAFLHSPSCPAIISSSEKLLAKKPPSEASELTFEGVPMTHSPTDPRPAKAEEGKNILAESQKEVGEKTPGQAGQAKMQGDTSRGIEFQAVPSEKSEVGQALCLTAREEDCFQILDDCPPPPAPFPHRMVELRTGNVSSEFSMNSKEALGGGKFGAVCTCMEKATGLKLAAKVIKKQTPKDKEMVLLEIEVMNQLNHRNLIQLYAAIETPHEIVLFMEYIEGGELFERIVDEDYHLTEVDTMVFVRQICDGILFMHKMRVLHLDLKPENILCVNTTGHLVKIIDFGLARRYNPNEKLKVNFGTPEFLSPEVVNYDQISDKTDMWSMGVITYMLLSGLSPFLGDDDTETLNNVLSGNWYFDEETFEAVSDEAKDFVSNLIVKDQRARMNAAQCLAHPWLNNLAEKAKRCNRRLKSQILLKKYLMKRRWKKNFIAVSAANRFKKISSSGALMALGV

BTK (human) = BTK (human) (UniProt Q06187)
MARK3 (human) = MARK3 (human) (UniProt P27448)
RPS6KA3 KD1 (human) = RPS6KA3 KD1 (human) (UniProt P51812)
MAP3K7 (human) = MAP3K7 (human) (UniProt O43318)
EPHA8 (human) = EPHA8 (human) (UniProt P29322)
[1] = target: JAK3 JH1 catalytic (human) (UniProt P52333)
MKNK1 (human) = MKNK1 (human) (UniProt Q9BUB5)
MAP3K13 (human) = MAP3K13 (human) (UniProt O43283)

Which results are given for `CCCS(=O)(=O)Nc1ccc(F)c(C(=O)c2c[nH]c3ncc(Cl)cc23)c1F`?
kinase still bound, per cent of control (RPS6KA6 KD1 (human)): 80%; kinase still bound, per cent of control (LIMK2 (human)): 24%; kinase still bound, per cent of control (EPHA2 (human)): 100%; kinase still bound, per cent of control (KIT (human)): 0.1%; kinase still bound, per cent of control (ITK (human)): 99%; kinase still bound, per cent of control (CAMKK1 (human)): 75%; kinase still bound, per cent of control (NUAK2 (human)): 41%; kinase still bound, per cent of control (PDGFRB (human)): 0%; kinase still bound, per cent of control (CDKL1 (human)): 93%; kinase still bound, per cent of control (PTK2 (human)): 51%; kinase still bound, per cent of control (CAMK4 (human)): 100%; kinase still bound, per cent of control (CDK2 (human)): 78%; kinase still bound, per cent of control (HIPK4 (human)): 34%; kinase still bound, per cent of control (ACVR2B (human)): 28%; kinase still bound, per cent of control (PIM2 (human)): 80%; kinase still bound, per cent of control (MAP3K1 (human)): 73%; kinase still bound, per cent of control (ROCK2 (human)): 81%; kinase still bound, per cent of control (PIP5K1C (human)): 79%; kinase still bound, per cent of control (CDKL5 (human)): 92%; kinase still bound, per cent of control (GSK3A (human)): 100%; kinase still bound, per cent of control (NEK6 (human)): 91%; kinase still bound, per cent of control (MYLK3 (human)): 41%; kinase still bound, per cent of control (RPS6KA4 KD2 (human)): 69%; kinase still bound, per cent of control (PRKCH (human)): 100%; kinase still bound, per cent of control (MAP4K1 (human)): 70%; kinase still bound, per cent of control (FGR (human)): 8.4%; kinase still bound, per cent of control (CSNK1A1L (human)): 100%; kinase still bound, per cent of control (MAPKAPK2 (human)): 100%; kinase still bound, per cent of control (MAP2K4 (human)): 6.6%; kinase still bound, per cent of control (PKN1 (human)): 85%; kinase still bound, per cent of control (PRKCD (human)): 100%; kinase still bound, per cent of control (MYLK2 (human)): 64%; kinase still bound, per cent of control (BTK (human)): 52%; kinase still bound, per cent of control (MARK3 (human)): 74%; kinase still bound, per cent of control (RPS6KA3 KD1 (human)): 56%; kinase still bound, per cent of control (MAP3K7 (human)): 51%; kinase still bound, per cent of control (EPHA8 (human)): 95%; kinase still bound, per cent of control [1]: 24%; kinase still bound, per cent of control (MKNK1 (human)): 100%; kinase still bound, per cent of control (MAP3K13 (human)): 100%

`CNC(=O)Nc1ccc(-c2nc(N3CC4CCC(C3)O4)c3cnn(C4CCC5(CC4)OCCO5)c3n2)cc1` was tested. Which kinase still bound, per cent of control (RPS6KA6 KD1 (human)) did it give?
The kinase still bound, per cent of control was 87%.

What about the kinase still bound, per cent of control (LIMK2 (human)) of the same compound?
Its kinase still bound, per cent of control is 88%.

What about the kinase still bound, per cent of control (EPHA2 (human)) of the same compound?
Its kinase still bound, per cent of control is 81%.

What about the kinase still bound, per cent of control (KIT (human)) of the same compound?
The kinase still bound, per cent of control was 91% and 93%.

And the kinase still bound, per cent of control (ITK (human))?
Its kinase still bound, per cent of control is 88%.

What about the kinase still bound, per cent of control (CAMKK1 (human)) of the same compound?
Its kinase still bound, per cent of control is 100%.

What about the kinase still bound, per cent of control (NUAK2 (human)) of the same compound?
Its kinase still bound, per cent of control is 100%.

What about the kinase still bound, per cent of control (PDGFRB (human)) of the same compound?
The kinase still bound, per cent of control was 89%.

What about the kinase still bound, per cent of control (CDKL1 (human)) of the same compound?
Its kinase still bound, per cent of control is 84%.

What about the kinase still bound, per cent of control (PTK2 (human)) of the same compound?
Its kinase still bound, per cent of control is 78%.

What about the kinase still bound, per cent of control (CAMK4 (human)) of the same compound?
Its kinase still bound, per cent of control is 100%.

And the kinase still bound, per cent of control (CDK2 (human))?
Its kinase still bound, per cent of control is 92%.

And the kinase still bound, per cent of control (HIPK4 (human))?
Its kinase still bound, per cent of control is 100%.

What about the kinase still bound, per cent of control (ACVR2B (human)) of the same compound?
The kinase still bound, per cent of control was 77%.

What about the kinase still bound, per cent of control (PIM2 (human)) of the same compound?
Its kinase still bound, per cent of control is 74%.

And the kinase still bound, per cent of control (MAP3K1 (human))?
The kinase still bound, per cent of control was 58%.

What about the kinase still bound, per cent of control (ROCK2 (human)) of the same compound?
The kinase still bound, per cent of control was 100%.

What about the kinase still bound, per cent of control (PIP5K1C (human)) of the same compound?
The kinase still bound, per cent of control was 100%.

What about the kinase still bound, per cent of control (CDKL5 (human)) of the same compound?
Its kinase still bound, per cent of control is 79%.

And the kinase still bound, per cent of control (GSK3A (human))?
Its kinase still bound, per cent of control is 82%.

What about the kinase still bound, per cent of control (NEK6 (human)) of the same compound?
The kinase still bound, per cent of control was 90%.

What about the kinase still bound, per cent of control (MYLK3 (human)) of the same compound?
The kinase still bound, per cent of control was 100%.

What about the kinase still bound, per cent of control (RPS6KA4 KD2 (human)) of the same compound?
Its kinase still bound, per cent of control is 100%.

What about the kinase still bound, per cent of control (PRKCH (human)) of the same compound?
Its kinase still bound, per cent of control is 91%.

And the kinase still bound, per cent of control (MAP4K1 (human))?
The kinase still bound, per cent of control was 94%.

And the kinase still bound, per cent of control (FGR (human))?
The kinase still bound, per cent of control was 100%.

What about the kinase still bound, per cent of control (CSNK1A1L (human)) of the same compound?
The kinase still bound, per cent of control was 100%.

And the kinase still bound, per cent of control (MAPKAPK2 (human))?
Its kinase still bound, per cent of control is 82%.

And the kinase still bound, per cent of control (MAP2K4 (human))?
The kinase still bound, per cent of control was 90%.

What about the kinase still bound, per cent of control (PKN1 (human)) of the same compound?
Its kinase still bound, per cent of control is 100%.

And the kinase still bound, per cent of control (PRKCD (human))?
The kinase still bound, per cent of control was 100%.

And the kinase still bound, per cent of control (MYLK2 (human))?
The kinase still bound, per cent of control was 100%.

What about the kinase still bound, per cent of control (BTK (human)) of the same compound?
The kinase still bound, per cent of control was 90%.

And the kinase still bound, per cent of control (MARK3 (human))?
The kinase still bound, per cent of control was 92%.

What about the kinase still bound, per cent of control (RPS6KA3 KD1 (human)) of the same compound?
Its kinase still bound, per cent of control is 100%.

And the kinase still bound, per cent of control (MAP3K7 (human))?
The kinase still bound, per cent of control was 98%.

What about the kinase still bound, per cent of control (EPHA8 (human)) of the same compound?
The kinase still bound, per cent of control was 81%.

What about the kinase still bound, per cent of control [1] of the same compound?
The kinase still bound, per cent of control was 90%.

And the kinase still bound, per cent of control (MKNK1 (human))?
The kinase still bound, per cent of control was 100%.

And the kinase still bound, per cent of control (MAP3K13 (human))?
The kinase still bound, per cent of control was 82%.

Which results are given for `C=CC(=O)Nc1ccc(C(=O)c2sc(Nc3ccc(N4CCN(C)CC4)cc3OC)nc2N)cc1`?
kinase still bound, per cent of control (RPS6KA6 KD1 (human)): 50%; kinase still bound, per cent of control (LIMK2 (human)): 100%; kinase still bound, per cent of control (EPHA2 (human)): 96%; kinase still bound, per cent of control (KIT (human)): 78%; kinase still bound, per cent of control (ITK (human)): 74%; kinase still bound, per cent of control (CAMKK1 (human)): 3.3%; kinase still bound, per cent of control (NUAK2 (human)): 49%; kinase still bound, per cent of control (PDGFRB (human)): 54%; kinase still bound, per cent of control (CDKL1 (human)): 100%; kinase still bound, per cent of control (PTK2 (human)): 51%; kinase still bound, per cent of control (CAMK4 (human)): 100%; kinase still bound, per cent of control (CDK2 (human)): 75%; kinase still bound, per cent of control (HIPK4 (human)): 4.6%; kinase still bound, per cent of control (ACVR2B (human)): 100%; kinase still bound, per cent of control (PIM2 (human)): 100%; kinase still bound, per cent of control (MAP3K1 (human)): 100%; kinase still bound, per cent of control (ROCK2 (human)): 24%; kinase still bound, per cent of control (PIP5K1C (human)): 44%; kinase still bound, per cent of control (CDKL5 (human)): 74%; kinase still bound, per cent of control (GSK3A (human)): 67%; kinase still bound, per cent of control (NEK6 (human)): 73%; kinase still bound, per cent of control (MYLK3 (human)): 100%; kinase still bound, per cent of control (RPS6KA4 KD2 (human)): 0.2%; kinase still bound, per cent of control (PRKCH (human)): 100%; kinase still bound, per cent of control (MAP4K1 (human)): 84%; kinase still bound, per cent of control (FGR (human)): 91%; kinase still bound, per cent of control (CSNK1A1L (human)): 78%; kinase still bound, per cent of control (MAPKAPK2 (human)): 99%; kinase still bound, per cent of control (MAP2K4 (human)): 24%; kinase still bound, per cent of control (PKN1 (human)): 97%; kinase still bound, per cent of control (PRKCD (human)): 100%; kinase still bound, per cent of control (MYLK2 (human)): 66%; kinase still bound, per cent of control (BTK (human)): 94%; kinase still bound, per cent of control (MARK3 (human)): 100%; kinase still bound, per cent of control (RPS6KA3 KD1 (human)): 9.6%; kinase still bound, per cent of control (MAP3K7 (human)): 73%; kinase still bound, per cent of control (EPHA8 (human)): 88%; kinase still bound, per cent of control [1]: 100%; kinase still bound, per cent of control (MKNK1 (human)): 34%; kinase still bound, per cent of control (MAP3K13 (human)): 100%
